The target of test [1] is T1, ALK2 R206H (GST-tagged mutant ALK2) (Homo sapiens, UniProt Q04771, R206H).
T1 construct: purchased Carna Bioscience or ThermoFisher 09-148 or PV6232
T1 sequence (Q04771 21-509 R206H): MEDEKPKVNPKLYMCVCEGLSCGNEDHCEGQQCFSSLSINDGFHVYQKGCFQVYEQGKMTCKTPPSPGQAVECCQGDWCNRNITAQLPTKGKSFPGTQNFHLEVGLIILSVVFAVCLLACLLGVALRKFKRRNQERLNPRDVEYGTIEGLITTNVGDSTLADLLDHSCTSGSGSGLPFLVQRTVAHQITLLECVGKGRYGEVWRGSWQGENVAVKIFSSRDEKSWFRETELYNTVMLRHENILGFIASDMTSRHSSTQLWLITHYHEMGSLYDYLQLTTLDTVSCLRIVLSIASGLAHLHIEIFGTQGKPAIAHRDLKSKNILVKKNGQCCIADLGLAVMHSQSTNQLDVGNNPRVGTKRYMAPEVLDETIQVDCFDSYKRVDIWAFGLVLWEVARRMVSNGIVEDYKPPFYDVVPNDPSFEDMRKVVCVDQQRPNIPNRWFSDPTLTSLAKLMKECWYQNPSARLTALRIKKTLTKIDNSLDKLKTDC
Nature of the test: ALK binding assay (LANTHASCREEN TR-FRET competitive binding, displacement of Kinase Tracer 178). The settings on record: ALK2 R206H, LANTHASCREEN TR-FRET competitive binding; read-out: Binding Assay (IC50). (In general: Time-resolved FRET reads energy transfer from a long-lived donor to a nearby acceptor.)

The target of test [2] is T2, human ALK2 R206H (Homo sapiens, UniProt Q04771, R206H).
T2 construct: expressed in transfected cells; host or cells: HEK293 (ATCC CRL1573), lentivirus transduction, blasticidin selection
T2 sequence (Q04771 21-509 R206H): T1 sequence (Q04771 21-509 R206H)
Put plainly: Cell-based ALK2-R206H cell activity assay (Smad1-Ser463/Ser465 phosphorylation by AlphaLISA in HEK293-ALK2-R206H cells). The settings on record: read-out: Cell Line (Cell Assay IC50). An outline of the steps: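 Stable HEK293 cells expressing C-terminally FLAG-tagged human ALK2 R206H (lentiviral, blasticidin-selected) were treated with compounds in 10-point, 3-fold dilutions from 10 μM or 1 μM top, in duplicate. Smad1 Ser463/Ser465 phosphorylation was read by AlphaLISA.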
A general note: In Alpha technology, singlet oxygen from a donor bead excites a nearby acceptor bead.

`N#C[C@H]1C[C@@H]1C(=O)N1CCN(c2ccnn3cc(-c4ccc([C@@]5(F)CCCNC5)cc4)cc23)CC1` [Compound 513]: the figures for the IC50 in test [1] and in test [2] were under 10 nM and under 100 nM, respectively.
The like results for `CC(C)N1CCN(C)C(c2ccc(-c3cc4c(N5CCN(C(=O)C6CC6)CC5)ccnn4c3)cc2)C1` (centres unmarked) [Compound 566] were, in that order, under 10 nM and under 100 nM.
As for `CCNC(=O)N1CCN(c2ccnn3cc(-c4nc5c(s4)CN(C(C)C)CC5)cc23)CC1` [Compound 193], the IC50 – broadly, the point on the concentration scale where inhibition reaches its midpoint – in test [1] was under 10 nM; in test [2] it was under 100 nM.
On to `CCO[C@]1(c2ccc(-c3cc4c(N5CCN(C(=O)NC(C)C)CC5)ccnn4c3)cc2)CCN(C(C)C)C1` [Compound 676], for which the values for the IC50 in test [1] and in test [2] were under 10 nM and under 100 nM, respectively.
Turning to `CCNC(=O)N1CCN(c2ccnn3cc(-c4ccc([C@@H]5CCCN5C(C)C)nc4)cc23)CC1` [Compound 494], the results for the IC50 in test [1] and in test [2] were under 10 nM and under 100 nM, respectively.
For `CC(C)NC(=O)N1CCN(c2ccnn3cc(-c4ccc(C5(O)CN(C(C)C)C5)cc4)cc23)CC1` [Compound 540], in that order: under 10 nM and under 100 nM.
Consider `CCN1CCN(c2ccc(-c3cc4c(N5CCN(C(=O)C6CC6)CC5)ccnn4c3)cc2)CC1` [Compound 213], for which the IC50 in test [1] is under 10 nM; in test [2], under 100 nM.
As for `CC(C)N1CC[C@@H](c2ccc(-c3cc4c(N5CCN(C(=O)C6CC6)CC5)ccnn4c3)cc2F)C1` [Compound 283], the figures for the IC50 in test [1] and in test [2] were under 10 nM and 100 to 500 nM, respectively.
Consider `CCOC1(c2ccc(-c3cc4c(N5CCN(C(=O)O[C@H]6CCOC6)CC5)ccnn4c3)nc2)CCN(C(C)C)CC1` [Compound 877], for which the results for the concentration for half-maximal inhibition (IC50) in test [1] and in test [2] were under 10 nM and under 100 nM, respectively.
The like results for `COC(=O)NC1(c2ccc(-c3cc4c(N5CCN(C(=O)C6CC6)CC5)ccnn4c3)cc2)CCNCC1` [Compound 622] were, in that order, under 10 nM and over 500 nM.
The like results for `CC(C)NC(=O)N1CCN(c2ccnn3cc(-c4ccc([C@H]5CCCN(C(C)C)C5)cn4)cc23)CC1` [Compound 589] were, in that order, under 10 nM and under 100 nM.
As for `CCN1CC(c2ccc(-c3cc4c(N5CCN(C(=O)C6CC6)CC5)ccnn4c3)cc2)C1` [Compound 124], the IC50 was under 10 nM in test [1] and under 100 nM in test [2].
The like results for `CC(C)N1CC(c2ccc(-c3cc4c(N5CCN(C(=O)[C@H]6CC[C@H](C#N)CC6)CC5)ccnn4c3)cc2)C1` [Compound 406] were, in that order, under 10 nM and under 100 nM.
Regarding `O=C(OC1COC1)N1CCN(c2ccnn3cc(-c4ccc(N5CCNCC5)cc4)cc23)CC1` [Compound 775], the results for the IC50 in test [1] and in test [2] were under 10 nM and under 100 nM, respectively.
For `CCCNC(=O)N1CCN(c2ccnn3cc(-c4ccc([C@@H]5CCN(C(C)C)C5)cc4)cc23)CC1` [Compound 530], the results for the IC50 in test [1] and in test [2] were under 10 nM and under 100 nM, respectively.
The like results for `COC1(c2ccc(-c3cc4c(N5CCN(C(=O)NC(C)C)CC5)ccnn4c3)cc2F)CCCN(C(C)C)C1` (centres unmarked) [Compound 722] were, in that order, under 10 nM and under 100 nM.
For `CC(C)N1CCC(c2ccc(-c3cc4c(N5CCN(C(=O)C6CC6)CC5)ccnn4c3)cc2F)CC1` [Compound 345], in that order: under 10 nM and under 100 nM.
The like results for `CCN(CC)[C@@H](CO)c1ccc(-c2cc3c(N4CCN(C(=O)OC5COC5)CC4)ccnn3c2)cc1` [Compound 805] were, in that order, under 10 nM and under 100 nM.
Take `NC1(c2ccc(-c3cc4c(N5CCN(C(=O)C6CC6)CC5)ccnn4c3)cc2)COC1` [Compound 755]: the IC50 is under 10 nM in test [1] and 100 to 500 nM in test [2].
Regarding `CC(C)N1CCC[C@@H](c2ccc(-c3cc4c(N5CCN(C(=O)[C@H]6C[C@H](O)C6)CC5)ccnn4c3)cc2)C1` [Compound 385], the values for the half-maximal inhibitory concentration (IC50) in test [1] and in test [2] were under 10 nM and under 100 nM, respectively.
The like results for `CC(C)N1CCC[C@H](c2ccc(-c3cc4c(N5CCN(C(=O)OC6COC6)CC5)ccnn4c3)nc2)C1` [Compound 636] were, in that order, under 10 nM and under 100 nM.
Take `COCCOC(=O)N1CCN(c2ccnn3cc(-c4ccc(C5CCN(C(C)C)CC5)cc4)cc23)CC1` [Compound 401]: the results for the IC50 in test [1] and in test [2] were under 10 nM and 100 to 500 nM, respectively.
`Cc1cc(-c2cc3c(N4CCN(C(=O)C5CC5)CC4)ccnn3c2)ccc1[C@@H]1CCN(C(C)C)C1` [Compound 503]: the IC50 was under 10 nM in test [1] and 100 to 500 nM in test [2].
As for `Cc1cc([C@H]2CCN(C(C)C)C2)ccc1-c1cc2c(N3CCN(C(=O)C4CC4)CC3)ccnn2c1` [Compound 256], the IC50 in test [1] is under 10 nM; in test [2], 100 to 500 nM.
For `CCOC(=O)N1CCN(c2ccnn3cc(-c4ccc(C5(OC)CCN(C(C)C)CC5)cn4)cc23)CC1` [Compound 820], the IC50 in test [1] is under 10 nM; in test [2] it was under 100 nM.
For `CCO[C@@]1(c2ccc(-c3cc4c(N5CCN(C(=O)OC6COC6)CC5)ccnn4c3)nc2)CCCNC1` [Compound 819], in that order: under 10 nM and under 100 nM.
For `COC1(c2ccc(-c3cc4c(N5CCN(C(=O)OC6COC6)CC5)ccnn4c3)nc2)CCN(C2COC2)CC1` [Compound 733], in that order: under 10 nM and under 100 nM.
For `CC(C)N1CC[C@@](O)(c2ccc(-c3cc4c(N5CCN(C(=O)C6CC6)CC5)ccnn4c3)nc2)C1` [Compound 526], in that order: under 10 nM and under 100 nM.
Take `O=C(C1CC1)N1CCN(c2ccnn3cc(-c4ccc(OC5CCNC5)cc4)cc23)CC1` (centres unmarked) [Compound 133]: the IC50 in test [1] is under 10 nM; in test [2], under 100 nM.
For `CC(C)N1CCN[C@](C)(c2ccc(-c3cc4c(N5CCN(C(=O)C6CC6)CC5)ccnn4c3)nc2)C1` [Compound 575], in that order: under 10 nM and 100 to 500 nM.
The like results for `COC1(c2ccc(-c3cc4c(N5CCN(C(=O)NC(C)C)CC5)ccnn4c3)c(C#N)c2)CCN(C(C)C)CC1` [Compound 852] were, in that order, under 10 nM and under 100 nM.
For `CC(C)N1CCC(C)(c2ccc(-c3cc4c(N5CCN(C(=O)OC6COC6)CC5)ccnn4c3)cc2)CC1` [Compound 668], in that order: under 10 nM and 100 to 500 nM.
`O=C(C1CC1)N1CCN(c2ccnn3cc(-c4cnn(C5CCNCC5)c4)cc23)CC1` [Compound 117]: the IC50 in test [1] was under 10 nM; in test [2] it was 100 to 500 nM.
Take `O=C(C1CC1)N1CCN(c2ccnn3cc(-c4ccc(C5CCCN5)cn4)cc23)CC1` (centres unmarked) [Compound 454]: the values for the IC50 in test [1] and in test [2] were under 10 nM and 100 to 500 nM, respectively.
As for `COC1(c2ccc(-c3cc4c(N5CCN(C(=O)OC(C)C)CC5)ccnn4c3)cc2)CCN(C(C)C)CC1` [Compound 685], the IC50 in test [1] was under 10 nM; in test [2] it was under 100 nM.
In the case of `O=C(C1CC1)N1CCN(c2ccnn3cc(-c4ccc(C5CCNCC5F)cc4)cc23)CC1` (centres unmarked) [Compound 174], the IC50 in test [1] was under 10 nM; in test [2] it was 100 to 500 nM.
Regarding `O=C(C1CC1)N1CCN(c2ccnn3cc(-c4ccc(N5CCN6CCCC6C5)cc4)cc23)CC1` (centres unmarked) [Compound 243], the results for the IC50 in test [1] and in test [2] were under 10 nM and under 100 nM, respectively.
With `COC1(c2ccc(-c3cc4c(N5CCN(C(=O)C6CC6)CC5)ccnn4c3)nc2)CCNCC1` [Compound 491], the figures for the IC50 in test [1] and in test [2] were under 10 nM and under 100 nM, respectively.
In the case of `CCN1CC[C@@H](c2ccc(-c3cc4c(N5CCN(C(=O)C6CC6)CC5)ccnn4c3)cc2)C(F)C1` (some centres unmarked) [Compound 280], the IC50 lay within 10 to 50 nM in test [1] and 100 to 500 nM in test [2].
The like results for `CC(C)NC(=O)N1CCN(c2ccnn3cc(-c4cnn([C@H]5CCCN(C(C)C)C5)c4)cc23)CC1` [Compound 557] were, in that order, under 10 nM and under 100 nM.
In the case of `CCNC(=O)N1CCN(c2ccnn3cc(-c4ccc([C@H]5CCN(C(C)C)C5)cn4)cc23)CC1` [Compound 496], the figures for the IC50 in test [1] and in test [2] were under 10 nM and under 100 nM, respectively.
Take `N#C[C@@H]1C[C@H]1C(=O)N1CCN(c2ccnn3cc(-c4ccc([C@]5(F)CCCNC5)cc4)cc23)CC1` [Compound 512]: the figures for the IC50 in test [1] and in test [2] were under 10 nM and under 100 nM, respectively.
For the compound `O=C(C1CC1)N1CCN(c2ccnn3cc(-c4cc5c(s4)CNCC5)cc23)CC1` [Compound 107], the IC50 in test [1] was under 10 nM; in test [2] it was under 100 nM.
For `CCNC(=O)N1CCN(c2ccnn3cc(-c4ccc([C@H]5CCCN5)nc4)cc23)CC1` [Compound 457], in that order: under 10 nM and 100 to 500 nM.
For `CCN1CCC(c2ccc(-c3cc4c(N5CCN(C(=O)C6CC6)[C@H](C)C5)ccnn4c3)cc2)CC1` [Compound 252], in that order: under 10 nM and 100 to 500 nM.
For `CCOC(=O)N1CCN(c2ccnn3cc(-c4ccc([C@H]5CCN(C(C)C)C5)cc4)cc23)CC1` [Compound 231], the IC50 in test [1] is under 10 nM; in test [2], under 100 nM.

These data come from patent US10233186B2, “Inhibitors of activin receptor-like kinase” (BLUEPRINT MEDICINES CORPORATION, priority 2016, dated 2019).
